Test: properties of crystalline AA-2G (stability, hygroscopicity, solubility)
Format: physicochemical
From the text: Different from the case of L-ascorbic acid, AA-2G hardly causes Maillard reaction. […] Also, by using AA-2G together with vitamins E and P, those biological activities can be increased. • (4) It is possible that AA-2G is produced and metabolized in living bodies when L-ascorbic acid and α-glucosyl saccharide are orally in taken. […] AA-2G can be advantageously used as vitamin C-reinforcement, taste-improving agent, acidifier, stabilizer, and the like for vitamin in the form of powder, granule, tablet, and the like, or foods such as cream, chocolate, chewing gum, instant juice, instant seasoning, and the like. • (6) Crystalline AA-2G is substantially non- or hardly hygroscopic.

- solubility in water: high solubility
- stability (crystalline product of Example 1): sufficient stability
Compound: O=C1O[C@H]([C@@H](O)CO)C(O)=C1O[C@H]1O[C@H](CO)[C@@H](O)[C@H](O)[C@H]1O [AA-2G, 2-O-α-D-glucopyranosyl-L-ascorbic acid]
